Laboratory results reported in patent US7754741B2, “Pyridine derivatives as fungicidal compounds” (Bayer Cropscience S.A., priority 2003, dated 2010).

What was measured:
[1] = tested on: Erysiphe graminis f. sp. tritici; test: In vivo test on Erysiphe graminis f. sp. tritici (wheat powdery mildew); conditions: Blumeria graminis, wheat plants sprayed 24 hours before contamination, grading 7 to 14 days after contamination vs control plants, read-out: protection (good (at least 50%) to total)
Method: In Vivo Test on Erysiphe graminis f. sp. tritici (Wheat Powdery Mildew)
(§1) The active ingredient tested is prepared by potter homogenisation in a concentrated suspension type formulation at 100 g/l. This suspension is then diluted with water to obtain the desired active material concentration.
Wheat plants (Audace variety) in starter cups, sown on 50/50 peat soil-pozzolana substrate and grown at 12° C., are treated at the 1-leaf stage (10 cm tall) by spraying with the aqueous suspension described above.
(§2) Plants, used as controls, are treated with an aqueous solution not containing the active material.
After 24 hours, the plants are contaminated by dusting them with Erysiphe graminis f. sp. tritici spores, the dusting being carried out using diseased plants. Grading is carried out 7 to 14 days after the contamination, in comparison with the control plants.
Under these conditions, good (at least 50%) to total protection is observed at a dose of 330 ppm with the following compounds: A-4, B-4, B-8, C-2, C-3, C-12, D-4, F-1, H-1, H-2, H-4, H-20, I-3, J-1, J-2, J-3, J-19, J-20, J-31, J-37, J-40, J-55, J-57, J-58, J-59, J-61, K-1, M-5, M-6, R-1, R-10, R-26, R-29, V-7.

[2] = tested on: Alternaria brassicae; test: In vivo test on Alternaria brassicae (leaf spot of crucifers); conditions: Alternaria brassicae; dose 330 ppm; radish plants sprayed 24 hours before contamination; grading 6 to 7 days after contamination vs control plants; read-out: protection (good (at least 50%) to total)
Method: In Vivo Test on Alternaria brassicae (Leaf Spot of crucifers)
as §1
Radish plants (Pernot variety) in starter cups, sown on a 50/50 peat soil-pozzolana substrate and grown at 18-20° C., are treated at the cotyledon stage by spraying with the aqueous suspension described above.
as §2
After 24 hours, the plants are contaminated by spraying them with an aqueous suspension of Alternaria brassicae spores (40,000 spores per cm^3). The spores are collected from a 12-13-day-old culture.
The contaminated radish plants are incubated for 6-7 days at about 18° C., under a humid atmosphere.
Grading is carried out 6 to 7 days after the contamination, in comparison with the control plants.

[3] = tested on: Pyrenophora teres; test: In vivo test on Pyrenophora teres (barley net blotch); conditions: Pyrenophora teres, 288 h; dose 330 ppm; barley plants sprayed 24 hours before contamination; grading 12 days after contamination vs control plants; read-out: protection (good (at least 50%) to total)
Method: In Vivo Test on Pyrenophora teres (Barley Net Blotch)
as §1
(§3) Barley plants (Express variety) in starter cups, sown on a 50/50 peat soil-pozzolana substrate and grown at 12° C., are treated at the 1-leaf stage (10 cm tall) by spraying with the aqueous suspension described above. Plants, used as controls, are treated with an aqueous solution not containing the active material.
After 24 hours, the plants are contaminated by spraying them with an aqueous suspension of Pyrenophora teres spores (12,000 spores per ml). The spores are collected from a 12-day-old culture The contaminated barley plants are incubated for 24 hours at about 20° C. and at 100% relative humidity, and then for 12 days at 80% relative humidity.

[4] = tested on: Botrytis cinerea; test: In vivo test on Botrytis cinerea (cucumber grey mould); conditions: Botrytis cinerea; dose 330 ppm; cucumber plants sprayed 24 hours before contamination; grading 5/7 days after contamination vs control plants; read-out: protection (good (at least 50%) to total)
Method: In Vivo Test on Botrytis cinerea (Cucumber Grey Mould)
as §1
as §3, with “Cucumber” for “Barley”, “(Marketer” for “(Express”, “18-20°” for “12°”, “cotyledon Z11” for “1-leaf”, “stage” for “stage (10 cm tall)”
After 24 hours, the plants are contaminated by depositing drops of an aqueous suspension of Botrytis cinerea spores (150,000 spores per ml) on upper surface of the leaves. The spores are collected from a 15-day-old culture and are suspended in a nutrient solution composed of: • 20 g/L of gelatin • 50 g/L of cane sugar • 2 g/L of NH4NO3 • 1 g/L of KH2PO4
The contaminated cucumber plants are settled for 5/7 days in a climatic room at 15-11° C. (day/night) and at 80% relative humidity.
Grading is carried out 5/7 days after the contamination, in comparison with the control plants. Under these conditions, good (at least 50%) to total protection is observed at a dose of 330 ppm with the following compounds :B-7, B-8, B-13, B-14, C-3, C-12, C-13, C-14, C-15, C-16, D-4, D-5, E-4, H-1, H-2, H-4, H-7, H-9, H-22, J-1, J-2, J-3, J-19, J-31, J-32, J-33, J-34, J-35, J-37, J-39, J-43, J-44, R-1, R-10, R-23, R-24, R-26, R-31, V-1, V-8.

Row | Structure (SMILES) | pest or weed control at 330 ppm [1] [%] | pest or weed control at 330 ppm [2] [%] | pest or weed control at 330 ppm [3] [%] | pest or weed control at 330 ppm [4] [%]
1 | O=C(NCCc1ncc(C(F)(F)F)cc1Cl)c1occc1Br [Compound A-4] | ≥ 50 | ≥ 50 | ≥ 50 | 
2 | Cc1oc(C(C)(C)C)cc1C(=O)NCCc1ncc(C(F)(F)F)cc1Cl [Compound B-4] | ≥ 50 | ≥ 50 |  | 
3 | Cc1cc(C(=O)NCCc2ncc(C(F)(F)F)cc2Cl)c(C)o1 [Compound B-7] |  | ≥ 50 | ≥ 50 | ≥ 50
4 | Cc1cc(C(=O)NCCc2ncc(C(F)(F)F)cc2Cl)c(C(F)(F)F)o1 [Compound B-8] | ≥ 50 | ≥ 50 | ≥ 50 | ≥ 50
5 | Cc1occc1C(=O)NCCc1ncc(Cl)cc1Cl [Compound B-13] |  | ≥ 50 | ≥ 50 | ≥ 50
6 | O=C(NCCc1ncc(C(F)(F)F)cc1Cl)c1ccoc1I [Compound B-14] |  | ≥ 50 | ≥ 50 | ≥ 50
7 | O=C(NCCc1ncc(C(F)(F)F)cc1Cl)c1sccc1Cl [Compound C-2] | ≥ 50 | ≥ 50 |  | 
8 | Cc1ccsc1C(=O)NCCc1ncc(C(F)(F)F)cc1Cl [Compound C-3] | ≥ 50 | ≥ 50 | ≥ 50 | ≥ 50
9 | O=C(NCCc1ncc(C(F)(F)F)cc1Cl)c1sccc1I [Compound C-12] | ≥ 50 | ≥ 50 | ≥ 50 | ≥ 50
10 | O=C(NCCc1ncc(Cl)cc1Cl)c1sccc1I [Compound C-13] |  | ≥ 50 | ≥ 50 | ≥ 50
11 | O=C(NCCc1ncc(Cl)cc1Br)c1sccc1I [Compound C-16] |  | ≥ 50 | ≥ 50 | ≥ 50
12 | O=C(NCCc1ncc(C(F)(F)F)cc1Cl)c1ccsc1I [Compound D-4] | ≥ 50 | ≥ 50 | ≥ 50 | ≥ 50
13 | Cc1cscc1C(=O)NCCc1ncc(C(F)(F)F)cc1Cl [Compound D-5] |  | ≥ 50 | ≥ 50 | ≥ 50
14 | Cn1cccc1C(=O)NCCc1ncc(C(F)(F)F)cc1Cl [Compound F-1] | ≥ 50 |  |  | 
15 | CC1=[SH]C(C(=O)NCCc2ncc(Cl)cc2Cl)=C(C(F)(F)F)N1 [Compound H-4] | ≥ 50 | ≥ 50 | ≥ 50 | ≥ 50
16 | Cn1nc(C(=O)NCCc2ncc(C(F)(F)F)cc2Cl)c(Br)c1[N+](=O)[O-] [Compound I-3] | ≥ 50 | ≥ 50 | ≥ 50 | 
17 | Cc1nn(C)c(F)c1C(=O)NCCc1ncc(C(F)(F)F)cc1Cl [Compound J-1] | ≥ 50 | ≥ 50 | ≥ 50 | ≥ 50
18 | Cc1nn(C)cc1C(=O)NCCc1ncc(C(F)(F)F)cc1Cl [Compound J-2] | ≥ 50 | ≥ 50 | ≥ 50 | ≥ 50

Row | Structure (SMILES) | pest or weed control at 330 ppm [1] [%] | pest or weed control at 330 ppm [2] [%] | pest or weed control at 330 ppm [3] [%] | pest or weed control at 330 ppm [4] [%]
19 | Cn1cc(C(=O)NCCc2ncc(C(F)(F)F)cc2Cl)c(C(F)F)n1 [Compound J-3] | ≥ 50 | ≥ 50 | ≥ 50 | ≥ 50
20 | Cc1nn(C)cc1C(=O)NCCc1ncc(Cl)cc1Cl [Compound J-19] | ≥ 50 | ≥ 50 | ≥ 50 | ≥ 50
21 | Cn1cc(C(=O)NCCc2nc(Cl)c(Cl)cc2Cl)c(C(F)(F)F)n1 [Compound J-20] | ≥ 50 |  | ≥ 50 | 
22 | Cc1cc(Br)cnc1CCNC(=O)c1cn(C)nc1C(F)F [Compound J-32] |  | ≥ 50 | ≥ 50 | ≥ 50
23 | Cn1cc(C(=O)NCCc2ncc(Cl)cc2F)c(C(F)F)n1 [Compound J-33] |  | ≥ 50 | ≥ 50 | ≥ 50
24 | Cn1cc(C(=O)NCCc2nc(Cl)c(Cl)cc2Cl)c(C(F)F)n1 [Compound J-34] |  |  | ≥ 50 | ≥ 50
25 | Cn1cc(C(=O)NCCc2ncc(Cl)cc2Br)c(C(F)F)n1 [Compound J-39] |  | ≥ 50 | ≥ 50 | ≥ 50
26 | Cc1c(F)c(F)nc(CCNC(=O)c2cn(C)nc2C(F)F)c1F [Compound J-40] | ≥ 50 |  | ≥ 50 | 
27 | Cn1cc(C(=O)NCCc2ncc(C(F)(F)F)cc2Cl)c(Cl)n1 [Compound J-57] | ≥ 50 |  | ≥ 50 | 
28 | Cn1cc(C(=O)NCCc2ncc(C(F)(F)F)cc2Cl)c(I)n1 [Compound J-58] | ≥ 50 |  | ≥ 50 | 
29 | Cc1cc(C(=O)NCCc2ncc(C(F)(F)F)cc2Cl)n(C(C)(C)C)n1 [Compound K-1] | ≥ 50 |  |  | 
30 | Cc1onc(-c2c(Cl)cccc2Cl)c1C(=O)NCCc1ncc(C(F)(F)F)cc1Cl [Compound M-5] | ≥ 50 | ≥ 50 |  | 
31 | Cc1onc(-c2c(F)cccc2Cl)c1C(=O)NCCc1ncc(C(F)(F)F)cc1Cl [Compound M-6] | ≥ 50 | ≥ 50 |  | 
32 | O=C(NCCc1ncc(C(F)(F)F)cc1Cl)c1cccnc1Cl [Compound R-1] | ≥ 50 | ≥ 50 | ≥ 50 | ≥ 50
33 | Cc1ncccc1C(=O)NCCc1ncc(C(F)(F)F)cc1Cl [Compound R-10] | ≥ 50 | ≥ 50 | ≥ 50 | ≥ 50
34 | CON=C(C)c1cnc(CCNC(=O)c2cccnc2Cl)c(Cl)c1 [Compound R-23] |  | ≥ 50 | ≥ 50 | ≥ 50
35 | O=C(NCCc1ncc(C(F)(F)F)cc1Cl)c1cccnc1Br [Compound R-26] | ≥ 50 | ≥ 50 | ≥ 50 | ≥ 50
